Reference: patent publication US9499553B2 (CHUGAI SEIYAKU KABUSHIKI KAISHA, priority 2013, dated 2016)

Biological target: T1, human NaPi-IIb (Homo sapiens, UniProt O95436)
T1 construct: expressed in transfected cells
T1 sequence (O95436 1-690): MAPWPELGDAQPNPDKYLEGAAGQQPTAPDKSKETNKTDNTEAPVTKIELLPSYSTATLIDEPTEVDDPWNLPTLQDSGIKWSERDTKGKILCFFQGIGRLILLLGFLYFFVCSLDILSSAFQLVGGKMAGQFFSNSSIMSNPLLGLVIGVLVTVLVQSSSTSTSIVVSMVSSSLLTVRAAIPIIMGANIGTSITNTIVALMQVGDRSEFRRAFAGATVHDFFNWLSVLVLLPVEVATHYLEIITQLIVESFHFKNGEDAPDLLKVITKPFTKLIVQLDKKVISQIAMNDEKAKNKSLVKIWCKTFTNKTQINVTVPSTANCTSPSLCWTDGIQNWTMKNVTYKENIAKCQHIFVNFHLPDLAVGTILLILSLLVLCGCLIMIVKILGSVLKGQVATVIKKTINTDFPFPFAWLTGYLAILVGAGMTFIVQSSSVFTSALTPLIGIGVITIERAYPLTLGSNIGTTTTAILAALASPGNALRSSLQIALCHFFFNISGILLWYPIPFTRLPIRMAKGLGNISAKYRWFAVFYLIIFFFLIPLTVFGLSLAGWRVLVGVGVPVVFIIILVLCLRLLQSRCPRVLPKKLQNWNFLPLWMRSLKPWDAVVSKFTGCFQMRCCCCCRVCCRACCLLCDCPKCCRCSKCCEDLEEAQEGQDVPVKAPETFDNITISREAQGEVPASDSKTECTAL
Experiment: Inhibitory effect on 33PO4 uptake into human NaPi-IIb-expressing CHO cells
Assay type: cell-based
Conditions: read-out: IC50
Description: Test Example 2: Inhibitory Effect on PO4 Uptake into Human NaPi-IIb-Expressing Cell CHO cells were transfected with human NaPi-IIb expression plasmids, and a stably human NaPi-IIb-expressing cell line was obtained using G418. The human NaPi-IIb-expressing cells were inoculated to a 96-well plate and incubated overnight in a CO2 incubator. […] After a given time, a 1/20 volume of buffer A containing ^33PO4 was added thereto and reacted at room temperature. After washing with ice-cold buffer A, a liquid scintillator was added to each reaction mixture, and the amount of ^33PO4 uptake was measured using TopCount.

Compared with CSc1ccc(-c2cc(C(F)(F)F)ccc2NC(=O)C2=C(O)[C@@]3(C)CCCN3N(Cc3ccc(CCCCCCC(=O)O)c(F)c3F)C2=O)cn1 [Example 115, 7-[4-[[(4aR)-4-Hydroxy-4a-methyl-3-[[2-(6-methylsulfanylpyridin-3-v1)-4-(trifluoromethyl)phenyl]carbamoyl]-2-oxo-6,7-dihydro-5H-pyrrolo[1,2-b]pyridazin-1-yl]methyl]-2,3-difluorophenyl]heptanoate], C[C@]12CCCN1N(Cc1ccc(C#CCOCCCCO)c(F)c1F)C(=O)C(C(=O)Nc1ccc(C(F)(F)F)cc1-c1ccc(C(F)(F)F)nc1)=C2O [Example 128] is 1.7-fold higher in IC50: 6.9 µM for the first, 12 µM for the second. The first is the more potent here.

CN1N(Cc2ccc(OCCN3CCOCC3)c(F)c2F)C(=O)C(C(=O)Nc2ccc(Cl)cc2-c2cc(C(F)(F)F)ncn2)=C(O)C12CCCCC2 [Example 297] and CN1N(Cc2ccc(OCCN3CCOCC3)c(F)c2F)C(=O)C(C(=O)Nc2ccc(C(F)(F)F)cc2-c2cc(C(F)(F)F)ncn2)=C(O)C12CCCCC2 [Example 295] are within 1.5-fold of each other in IC50: 18.3 µM for the first, 17 µM for the second.

Compared with C[C@]12CCCN1N(Cc1cc(F)ccc1F)C(=O)C(C(=O)Nc1ccc(C(F)(F)F)cc1-c1ccc(C(F)(F)F)nc1)=C2O [Example 172], C[C@]12CCCN1N(Cc1cccc(F)c1Cl)C(=O)C(C(=O)Nc1ccc(C(F)(F)F)cc1-c1ccc(C(F)(F)F)nc1)=C2O [Example 201] is 1.8-fold lower in IC50: 2.4 µM for the first, 1.3 µM for the second.

CC(C)(C)[C@H]1C(O)=C(C(=O)Nc2ccc(Cl)cc2-c2ccc(C(F)(F)F)nc2)C(=O)N(Cc2cccc(F)c2F)N1CC(F)(F)F [Example 247] and CC(C)[C@H]1C(O)=C(C(=O)Nc2ccc(C(F)(F)F)cc2-c2cc(C(F)(F)F)ncn2)C(=O)N(Cc2cccc(F)c2F)N1C [Example 252] are within 1.5-fold of each other in IC50: 8.2 µM for the first, 9.5 µM for the second.

Cc1c(-c2cc(C(F)(F)F)ccc2NC(=O)C2=C(O)[C@H](C(C)(C)C)N(C)N(Cc3ccc(OCCN4CCOCC4)c(F)c3F)C2=O)ncnc1C(F)(F)F [Example 278] and CN1N(Cc2ccc(OCCN3CCOCC3)c(F)c2F)C(=O)C(C(=O)Nc2ccc(C(F)(F)F)cc2-c2ccc(C(F)(F)F)nc2)=C(O)C12CCCC2 [Example 287] are within 1.5-fold of each other in IC50: 6.6 µM for the first, 8 µM for the second.

COc1c(C#N)ncnc1-c1cc(C(F)(F)F)ccc1NC(=O)C1=C(O)[C@@]2(C)CCCN2N(Cc2cccc(F)c2F)C1=O [Example 25] and Cc1c(Cl)ncnc1-c1cc(C(F)(F)F)ccc1NC(=O)C1=C(O)[C@@]2(C)CCCN2N(Cc2cccc(F)c2F)C1=O [Example 69] are within 1.5-fold of each other in IC50: 10.1 µM for the first, 8.9 µM for the second.

C[C@]12CCCN1N(Cc1cccc(Cl)c1)C(=O)C(C(=O)Nc1ccc(C(F)(F)F)cc1-c1ccc(C(F)(F)F)nc1)=C2O [Example 169] and C[C@]12CCCN1N(Cc1ccccc1Cl)C(=O)C(C(=O)Nc1ccc(C(F)(F)F)cc1-c1ccc(C(F)(F)F)nc1)=C2O [Example 168] are the same in IC50: 2.6 µM for the first, 2.6 µM for the second.

First: C[C@]12CCCN1N(Cc1c(F)cc(C#CCCCCCOC[C@H](O)[C@@H](O)CO)cc1F)C(=O)C(C(=O)Nc1ccc(C(F)(F)F)cc1-c1ccc(C(F)(F)F)nc1)=C2O [Example 124, (4aR)-1-[[2,6-Difluoro-4-[7-[(2S,3S)-2,3,4-trihydroxybutoxy]hept-1-ynil]phenyl]methyl]-4-hydroxy-4a-methyl-2-oxo-N-[4-(trifluoromethyl)-2-[6-(trifluoromethyl)pyridin-3-yl]phenyl]-6,7-dihydro-5H-pyrrolo[1,2-b]pyridazine-3-carboxamide]
Second: COc1cc(CN2C(=O)C(C(=O)Nc3ccc(C(F)(F)F)cc3-c3ccc(C(F)(F)F)nc3)=C(O)[C@@]3(C)CCCN23)cc(OC)c1 [Example 202]
The IC50 of the first is 2.4-fold lower: 2.5 µM for the first, 6.1 µM for the second.

COc1cccc(-c2cc(C(F)(F)F)ccc2NC(=O)C2=C(O)[C@@]3(C)CCCN3N(Cc3ccc(C#CCOCCOCCO)c(F)c3F)C2=O)c1OC [Example 139] and COc1cccc(-c2cc(C(F)(F)F)ccc2NC(=O)C2=C(O)[C@@]3(C)CCCN3N(Cc3ccc(C#CCCCO)c(F)c3F)C2=O)c1OC [Example 138] are within 1.5-fold of each other in IC50: 17 µM for the first, 11.9 µM for the second.

First: C[C@]12CCCN1N(Cc1cccc(F)c1F)C(=O)C(C(=O)Nc1ccc(C(F)(F)F)cc1)=C2O [Example 89]
Second: C[C@]12CCCN1N(Cc1cccc(F)c1F)C(=O)C(C(=O)Nc1ccc(C(F)(F)F)cc1-c1cncc(C(F)(F)F)c1)=C2O [Example 91]
The IC50 of the first is 3.3-fold lower: 4.8 µM for the first, 15.7 µM for the second. The first is the more potent here.

C[C@]12CCCN1N(Cc1ccc(C#N)cc1)C(=O)C(C(=O)Nc1cc(F)c(Br)c(F)c1)=C2O [Example 222] and C[C@]12CCCN1N(Cc1ccc(Cl)cc1)C(=O)C(C(=O)Nc1cc(F)c(Br)c(F)c1)=C2O [Example 223] are within 1.5-fold of each other in IC50: 17.6 µM for the first, 17.9 µM for the second.

CN1[C@@H](C(C)(C)C)C(O)=C(C(=O)Nc2cccc(C(F)(F)F)n2)C(=O)N1Cc1cccc(F)c1F [Example 244] and CN1N(Cc2cccc(F)c2F)C(=O)C(C(=O)Nc2ccc(C(F)(F)F)cc2-c2cc(C(F)(F)F)ncn2)=C(O)C12CCC2 [Example 300] are within 1.5-fold of each other in IC50: 7.3 µM for the first, 9.3 µM for the second.

Compared with COc1ncc(-c2cc(C(F)(F)F)ccc2NC(=O)C2=C(O)[C@@]3(C)CCCN3N(Cc3cccc(F)c3F)C2=O)c(OC)n1 [Example 72], COC(=O)c1cccc(-c2cc(C(F)(F)F)ccc2NC(=O)C2=C(O)[C@@]3(C)CCCN3N(Cc3cccc(F)c3F)C2=O)c1OC [Example 65] is 2-fold higher in IC50: 8.3 µM for the first, 16.2 µM for the second.

First: CC(C)[C@H]1C(O)=C(C(=O)Nc2ccc(Cl)cc2-c2ccc(C(F)(F)F)nc2)C(=O)N(Cc2ccc(OCCN3CCOCC3)c(F)c2F)N1C [Example 281]
Second: CN1N(Cc2ccc(C#CCN3CCOCC3)c(F)c2F)C(=O)C(C(=O)Nc2ccc(C(F)(F)F)cc2-c2cc(C(F)(F)F)ncn2)=C(O)C1(C)C [Example 315]
The IC50 of the first is 1.9-fold higher: 18.8 µM for the first, 9.8 µM for the second. The second is the more potent here.

C[C@]12CCCN1N(Cc1cccc([N+](=O)[O-])c1)C(=O)C(C(=O)Nc1ccc(Br)c(F)c1)=C2O [Example 27] was tested, and the IC50 was 9 µM.

Same assay, conditions: read-out: IC50 against 33PO4 uptake into human NaPi-IIb-expressing cells

Going from CN1N(Cc2ccc(OCCCCCOC[C@H](O)CO)c(F)c2F)C(=O)C(C(=O)Nc2ccc(C(F)(F)F)cc2-c2cc(C(F)(F)F)ncn2)=C(O)C12CCCC2 [Example 394] to CN1N(Cc2ccc(OCCCOC[C@H](O)CO)c(F)c2F)C(=O)C(C(=O)Nc2ccc(C(F)(F)F)cc2-c2ccc(C(F)(F)F)nc2)=C(O)C12CCC2 [Example 383, 6-[[4-[3-[(2R)-2,3-Dihydroxypropoxy]propoxy]-2,3-difluorophenyl]methyl]-9-hydroxy-5-methyl-7-oxo-N-[4-(trifluoromethyl)-2-[6-(trifluoromethyl)pyridin-3-yl]phenyl]5,6-diazaspiro[3.5]non-8-ene-8-carboxamide], the IC50 rises from 6.7 µM to 20.9 µM (3.1-fold). The first is the more potent here.

CN1N(Cc2ccc(OCCN3CCN(CCO)CC3)c(F)c2F)C(=O)C(C(=O)Nc2ccc(C(F)(F)F)cc2-c2cc(C(F)(F)F)ncn2)=C(O)C12CCC2 [Example 360] and CN1N(Cc2ccc(OCCN3CCN(CCCO)CC3)c(F)c2F)C(=O)C(C(=O)Nc2ccc(C(F)(F)F)cc2-c2cc(C(F)(F)F)ncn2)=C(O)C12CCC2 [Example 362] are within 1.5-fold of each other in IC50: 23.1 µM for the first, 18.8 µM for the second.

CC(=O)N(C)CCN(C)CCOc1ccc(CN2C(=O)C(C(=O)Nc3ccc(C(F)(F)F)cc3-c3cc(C(F)(F)F)ncn3)=C(O)C3(CCC3)N2C)c(F)c1F [Example 354] and CN(CCOc1ccc(CN2C(=O)C(C(=O)Nc3ccc(C(F)(F)F)cc3-c3cc(C(F)(F)F)ncn3)=C(O)C3(CCCC3)N2C)c(F)c1F)C1COC1 [Example 412, 7-(2,3-Difluoro-4-(2-(methyl(oxetan-3-yl)amino)ethoxy)benzyl)-10-hydroxy-6-methyl-8-oxo-N-(4-(trifluoromethyl)-2-(6-(trifluoromethyl)pyrimidin-4-yl)phenyl)-6,7-diazaspiro[4.5]dec-9-ene-9-carboxamide] are within 1.5-fold of each other in IC50: 26 µM for the first, 19 µM for the second.

CN1N(Cc2ccc(OCCN3[C@@H]4COC[C@H]3C4)c(F)c2F)C(=O)C(C(=O)Nc2ccc(C(F)(F)F)cc2-c2cc(C(F)(F)F)ncn2)=C(O)C12CCCC2 [Example 380] and CSC1CN(CCOc2ccc(CN3C(=O)C(C(=O)Nc4ccc(C(F)(F)F)cc4-c4cc(C(F)(F)F)ncn4)=C(O)C4(CCC4)N3C)c(F)c2F)C1 [Example 357] are within 1.5-fold of each other in IC50: 20.2 µM for the first, 21.8 µM for the second.

COC1(C)CN(CCOc2ccc(CN3C(=O)C(C(=O)Nc4ccc(C(F)(F)F)cc4-c4cc(C(F)(F)F)ncn4)=C(O)C4(CCC4)N3C)c(F)c2F)C1 [Example 356] and CN(C)C(=O)N1CCN(CCOc2ccc(CN3C(=O)C(C(=O)Nc4ccc(C(F)(F)F)cc4-c4cc(C(F)(F)F)ncn4)=C(O)C4(CCC4)N3C)c(F)c2F)CC1 [Example 364] are within 1.5-fold of each other in IC50: 21.9 µM for the first, 20.9 µM for the second.

CN(C[C@H](O)[C@@H](O)[C@H](O)[C@H](O)CO)C(=O)CCOCCOCCOCCOc1ccc(CN2C(=O)C(C(=O)Nc3ccc(C(F)(F)F)cc3-c3cc(C(F)(F)F)ncn3)=C(O)C3(CCCC3)N2C)c(F)c1F [Example 423] and CN1N(Cc2ccc(OCCN3CCC(N4CCOCC4)CC3)c(F)c2F)C(=O)C(C(=O)Nc2ccc(C(F)(F)F)cc2-c2cc(C(F)(F)F)ncn2)=C(O)C12CCCC2 [Example 374] are within 1.5-fold of each other in IC50: 20 µM for the first, 16.4 µM for the second.
